From patent US20130309695A1, “METHODS OF DIAGNOSING ASTHMA” (UNIVERSITY OF MANITOBA, priority 2010, published 2013)

B1: IL-4: cytokine used to stimulate HASMC (protein, UniProt P05112 25-153, looked up)
Interleukin-4: HKCDITLQEIIKTLNSLTEQKTLCTELTVTDIFAASKNTTEKETFCRAATVLRQFYSHHEKDTRCLGATAQQFHRHKQLIRFLKRLDRNLWGLAGLNSCPVKEANQSTLENFLERLKTIMREKYSKCSS

What was measured:
[1] = tested on: TNF-α-mediated PTX3 release from HASMC; test: Effect of MAPK inhibitors on TNF-α-induced PTX3 release from HASMC (ELISA); format: cell-based, human; conditions: 10 μM, 1 h pretreatment, then TNF-α 10 ng/ml for 24 h
Procedure: (§1) Confluent HASMC (passages 2-5) were growth-arrested by FBS deprivation for 48 h in Ham's F-12 medium containing 5 μg/ml human recombinant insulin, 5 μg/ml human transferrin, 5 ng/ml selenium, and antibiotics (100 U/ml penicillin and 100 μg/ml streptomycin). Cells were then stimulated in fresh FBS-free medium containing graded concentration (0.1, 1, 10, and 100 ng/ml) of human TNF-α, IL-4, PTX3 or medium alone. In some experiments, cells were pretreated for 1 h with U-0126 (10 μM), SB-203580 (10 μM), or SP600125 (50 nM) before stimulation for 24 h with TNF-α (10 ng/ml), at 10 ng/ml. Supernatants were collected at 24 and 48 h, centrifuged at 1,200 rpm for 7 min at 4° C. to remove cellular debris, and stored at −80° C. until analysis by ELISA.
(§2) Immunoreactive PTX3 within the supernatants was quantified using ELISA with matched antibodies according to basic laboratory protocols provided by the manufacturer (R&D Systems Inc., Minneapolis, Minn.). PTX3 protein was quantified in reference to serial dilutions of recombinant standards falling within the linear part of the standard curve for each specific PTX3 measured. Each data point represents readings from a minimum of four independent assays wherein each assay was performed in duplicate.
One of the major downstream pathways for TNF-α-induced cell activation is MAPKs, which play an important role in cells for inflammatory response. Growth-arrested HASMC cells were left unstimulated (medium alone) or treated with 10 ng/ml TNF-α for 24 h, with or without pretreatment for 1 h with inhibitors of JNK (SP600125 50 nM), p42/p44 ERK (U-0126, 10 μM) and p38 MAPK (SB-203580, 10 μM).

[2] = tested on: PTX3 mRNA expression in human airway smooth muscle cells (HASMC); test: PTX3 mRNA expression in cultured HASMC (RT-PCR / real-time RT-PCR); format: cell-based
Procedure: as §1
Confluent HASMC (passages 2-5) were growth-arrested for 48 h in serum-free medium as described above. Cells were then stimulated in fresh FBS-free medium containing human recombinant TNF-α (10 ng/ml), IL-4, or medium alone for 2, 6, and 24 h. Cells were harvested, and total cellular RNA was extracted using TRIzol® method (Invitrogen Life Technologies, Gaithersburg, Md.). The RNA concentration and purity were assessed with optical density measurements. […] Amplified products were analyzed by DNA gel electrophoresis in 2% agarose and visualized by ethidium bromide staining under ultraviolet illumination. […] The PTX3 level was quantified by scanning densitometry and corrected for GAPDH in the same sample. […]
Total cellular RNA extraction and reverse transcription was performed as described above. […] The amount of extracted DNA was quantified by spectrophotometry and expressed as copy number. […] For real-time quantitative PCR, each reaction contained the following: 1× LightCycler® DNA Master SYBR Green I (Roche), 25 mM MgCl2, 0.5 μM each primer, 0.07 μM TaqStart® Ab (Clontech), and 10 μl (1:10 for PTX3 and 1:80 for GAPDH) of cDNA, in a final volume of 25 μl. […]

PTX3 release from HASMC = test: PTX3 protein release from HASMC into the supernatant (ELISA); format: cell-based, human; conditions: growth-arrested HASMC, 24 h, 0.1, 1, 10 ng/ml
Procedure: as §1, with “Supernatants were collected at 24 and 48 h, centrifuged at 1,200 rpm for 7 min at 4° C. to remove cellular debris, and stored at −80° C. until analysis by ELISA.” left out
as §2
Assessments were made of the effects of dosage and exposure time of TNF-α on HASMC. […] For both experiments, HASMC were stimulated with 0.1, 1, 10 or 100 ng/ml TNF-α, or medium alone for 24 h after which, PTX3 was measured by ELISA.

| Molecule | effect on TNF-α-induced PTX3 release [1] | PTX3 release from HASMC (PTX3 release from HASMC) | also measured |
| --- | --- | --- | --- |
| C[S+]([O-])c1ccc(-c2nc(-c3ccncc3)c(-c3ccc(F)cc3)[nH]2)cc1 (centres unmarked) [SB-203580, 4-(4-fluorophenyl)-2-(4-methyl-sulfinylphenyl)-5-(4′-pyridyl)-1H-imidazole] | no effect |  |  |
| N#CC(=C(N)Sc1ccccc1N)C(C#N)=C(N)Sc1ccccc1N [U-0126, 1,4-diamino-2,3-dicyano-1,4-bis(2-aminophenylthio)butadiene] | significant inhibition |  | effect on TNF-α-induced PTX3 release ([1]; listed as U0126): abrogate |
| TNF-α |  | induced the release of PTX3 in a dose-dependent manner | fold increase of PTX3 mRNA compared with unstimulated cells ([2]; 10 ng/mL, 6 h, ratio to GAPDH, mean±SD of three experiments): 30.93±11.25 fold; time of peak PTX3 mRNA response ([2]; 10 ng/ml, stimulated 2, 6 and 24 h, real-time RT-PCR): 6 h |
| B1 |  | No significant PTX3 release | effect on PTX3 mRNA expression ([2]; 6 h, data not shown): no significant effect |
